Measured values reported in paper PMC8949075, “Evaluation of Two Novel Hydantoin Derivatives Using Reconstructed Human Skin Model Episkin^TM: Perspectives for Application as Potential Sunscreen Agents” (Molecules, 2022).

Experiments:
in vitro = conditions: human, 26 mg/cm^2
Text: (§1) The Episkin^TM model (aged 13 days, large/1.07 cm^2 surface area) was provided by Episkin (Lyon, France). The Episkin^TM kit consists of 12 reconstructed epidermis units made of type I collagen matrix, representing the dermis, surfaced with a film of type IV collagen, upon which is laid a stratified and differentiated epidermis derived from human keratinocytes [17]. Upon receipt of the tissues, the culture inserts were removed from the agarose-nutrient solution and transferred into 12-well plates containing 2 mL of the maintenance medium (MM) per well. The MM was provided by the manufacturer. Tissues were then incubated for 24 h at 37 °C in a humidified atmosphere of 5% CO2 before use in the permeation, irritation, or phototoxicity experiments.
(§2) Prior to the irritation experiments, the Episkin^TM inserts were washed with sterile PBS to remove traces of the MM and transferred into new 12-well plates containing 2 mL of fresh MM. […] Sodium dodecyl sulphate (SDS; Sigma-Aldrich, Darmstadt, Germany) (5% in water) and PBS were used as positive and negative controls, respectively. Both controls were applied topically (26 mg/cm^2). Samples were tested in two independent experiments using three tissues for each chemical, positive, or negative control.
(§3) Then, the tissues were placed in new 12-well plates containing 2 mL of the MM per well and incubated for an additional 42 h at 37 °C in a humidified atmosphere of 5% CO2 as post-treatment incubation time. At the end of this period, the culture media of each tissue were collected and stored at −20 °C for Il-1α measurement.
(§4) The cell viability was assessed by a subsequent incubation of the tissues for 3 h with freshly prepared 3-(4,5-dimethylthiazol-2-yl)-2,5-diphenyltetrazolium bromide (MTT; Sigma-Aldrich, Darmstadt, Germany) solution (0.3 mg/mL in assay medium (AM)) in a 12-well plate. Then, a biopsy of the epidermis was done using a puncher (Episkin, Lyon, France), and the precipitated formazan was extracted using 500 µL of acidified isopropanol (Chempur, Piekary Śląskie, Poland) (0.04 N HCl in isopropanol) for 48 h (4 °C). At the end of the extraction period, 200 µL of each sample were transferred to 96-well plates for absorbance measurements at 570 nm (A570) [70, 71, 72, 73]. […] Viability (percent of control) was determined by dividing A570 of experimental wells by A570 of control wells × 100%. The test substance was considered as an irritant when mean tissue viability was equal or less than 50% [16, 17].
(§5) Il-1α measurement was conducted by a classic enzyme-linked immunosorbent assay (ELISA) technique (Cayman Chemical, Ann Arbor, MI, USA). Firstly, 100 µL of the samples were added into a 96-well ready to use microtiter plate (precoated with a monoclonal antibody specific for Il-1α (Il-1α capture antibody). Secondly, 100 µL of an acetylcholinesterase:Fab’ Conjugate (AChE:Fab’) was added to each well. The plate was covered with plastic film and incubated overnight at 4 °C. At the end of the incubation period the contents of each well were removed and rinsed five times with wash buffer. Next, 200 µL of Ellman’s reagent (containing the substrate for AChE) was added to each well, the plate was covered with plastic film and developed in the dark using an orbital shaker. The absorbance of the wells was measured at 410 nm. Il-1α concentrations were then calculated using the standard curve.

[1] = tested on: selected human skin cells; parameters: method as in PMID 31238526; conditions: cited from earlier work
[2] = In vitro microsomal biotransformation; assay type: in vitro ADME, human; conditions: for t1/2 (in vitro half time): HLMs 0.8 mg/mL; for t1/2 (in vitro half time) / microsomal CLint at 20 µM / half-life at 20 µM: 20 µM, 37 °C; for Biotransformation (main metabolite M, ΔM −28): in the absence or presence of NADPH; for microsomal CLint at 20 µM / half-life at 20 µM: human, liver microsomes, pH 7.4, HLMs 0.8 mg/mL; for microsomal CLint at 20 µM: read-out: Clint (intrinsic clearance); for half-life at 20 µM: read-out: t1/2 (in vitro half time)
Experimental: The microsome incubation procedure was adapted from the previous studies. Reaction mixtures comprising the test compound JH3 or JH10 (20 µM in methanol), human liver microsomes (HLMs; Sigma Aldrich, Darmstadt, Germany) (0.8 mg/mL), and 100 mM potassium phosphate buffer (pH 7.4) were preincubated before the addition of NADPH-regenerating system (NADP, glucose-6-phosphate and glucose-6-phosphate dehydrogenase in potassium phosphate buffer). The NADPH-regenerating system and buffer components were obtained from Sigma-Aldrich (Darmstadt, Germany). Incubation was conducted for different time points (i.e., 5, 15, and 30 min) with temperature set at 37 °C. The reaction was quenched with ice-cold methanol, followed by the addition of internal standard (IS)–PTX (20 µM). The mixture was then centrifuged.
Supernatant analysis was performed using UHPLC/MS (Waters Corporation, Milford, MA, USA). Two control samples were prepared with each incubation set. The first, a mixture of a test compound and potassium phosphate buffer, and without the addition of HLMs nor the NADPH-regenerating system, was used to exclude the possibility of hydrolysis facilitated by the buffer solution. The second, a mixture of a test compound, potassium phosphate buffer and HLMs, but without the NADPH-regenerating system solution, was designed to evaluate the production of metabolites in the presence of enzymes but the absence of NADPH [14, 82]. The assays were repeated two times. The in vitro half time (t1/2) for JH3 was established from the slope of the linear regression of ln percent parent compound remaining against incubation time. Intrinsic clearance (Clint) was obtained from the equation: Clint = (volume of incubation [µL] (i.e., 250 µL)/protein in the incubation [mg] (i.e., 0.2 mg)) × 0.693/t1/2 [83, 84, 85].

[3] = tested on: Episkin^TM reconstructed human epidermis; experiment: Episkin skin irritation test (MTT viability, Il-1α release; OECD 439); conditions: for Il-1α release: 26 mg/cm^2 topical, 15 min exposure, 42 h post-incubation; for skin irritation classification: 50% viability cut-off (OECD prediction model)
Text: as §1, §2, §3, §4, §5

[4] = Relative lipophilicity by reversed-phase thin-layer chromatography; assay type: physicochemical; conditions: RP-TLC, RP-18 plates, methanol/phosphate buffer pH 7.4, extrapolated to 0% methanol
Experimental: The experimental log P was determined by reversed-phase thin-layer chromatography (RP-TLC). TLC was carried out on plates precoated with silica gel RP-18 F254 (Merck, Darmstadt, Germany). The mobile phases used were the mixtures of methanol (commercially available material of reagent grade) and 100 mM potassium–phosphate buffer (pH = 7.4), with the methanol content ranging from 95 to 65% (v/v) in 5% increments. A total of 10 μL of test compound solutions in methanol (1 mg/mL) were spotted on the plates. The plates were developed in chromatographic chambers previously saturated with solvent for 1 h. After development (at room temperature in a normal chamber: 22 × 22 × 7 cm) and the drying of the plates, the spots were observed under a UV lamp (λ = 254 nm). The Rf values were mean values from two independent chromatographic runs. The experimental Rf was converted into the RM value according to the following equation [66]: RM = log (1/Rf − 1). The calculated values were extrapolated for a 0% methanol concentration (RM0) using the equation: RM = RM0 + bC, where C is the concentration (%, v/v) of methanol in the mobile phase and b is the regression term.

CHO-K1 cells = experiment: In vitro micronucleus assay; assay type: cell-based, Chinese hamster; conditions: for DB (dicentric bridges) / MN (micronuclei) / NB (nuclear buds): count in 1000 binucleated cells per slide; for effect on MN, DB, NB and NDI: 1, 5 and 10 µM
Experimental: The CHO-K1 cells were seeded in 6-well plates at a density of 1 × 10^6 cells/well and incubated overnight at 37 °C, 5% CO2 atmosphere. […] The test compounds and 4MBC were dissolved in DMSO (solvent, final concentration 0.1%) and ethanol (co-solvent, final concentration 1%). After 24 h of treatment, the medium was removed, and the cells were rinsed with PBS. Then, fresh medium containing cytochalasin B (CytB; Sigma Aldrich, Darmstadt, Germany) (4.5 µg/mL) was added and incubation was continued for the next 24 h.
After the incubation period, the cells were washed with fresh medium, detached by trypsinization, and centrifuged. The supernatant was discarded and 5 mL of 1% ice-cold sodium citrate (Chempur, Piekary Śląskie, Poland) was added to the cell pellet, which was then gently resuspended. After 15 s, 5 mL of freshly prepared fixative solution (methanol/acetic acid, 3:1) and 4 drops of formaldehyde were added. The cell suspension was centrifuged (5 min, 1000 rpm), the supernatant was discarded again, and the pellet was fixed in fixative mixture two more times, without formaldehyde. After the third fixation, part of the supernatant was removed, and around 1 mL of the supernatant was retained to resuspend the cells. The suspension was then dripped onto clean, previously frozen, glass slides to dry. After air-drying, the slides were stained with Giemsa dye (1:20 in phosphate buffer) for 5 min [56, 78, 79].
One thousand binucleated cells per slide with intact nuclei of equal size, similar pattern of cytoplasm staining, intact membrane, and distinguishable from adjacent cells, without apoptotic and necrotic cells were analyzed. Only the micronuclei with the same morphology and color of the main nuclei, with 1/16 to 1/3 of the major nucleus diameter, unrefringent and not overlapping or connected to the main nuclei were counted. Moreover, the presence of dicentric bridges (DB) and nuclear buds (NB) in the binucleated cells was analyzed. The nuclear division index (NDI) was calculated using the following formula: [(1 × MOC) + (2 × BC) + (3 × MUC)]/N, where MOC is the number of mononuclear cells, BC is the number of binuclear cells, MUC represents the number of multinuclear cells, and N is the total number of scored cells. The micronucleus incidence was presented as a number of micronuclei per 1000 examined binuclear cells. The experiment was conducted two times with three repetitions for each condition.

SMILES | viability at 15 min (in vitro) [%] | cytotoxicity [1] | t1/2 (in vitro half time) [2] | Biotransformation (main metabolite M, ΔM −28) ([2]; HLMs) | microsomal CLint at 20 µM [2] [µL/min/mg] | half-life at 20 µM [2] [min] | Il-1α release [3] | skin irritation classification [3] | relative lipophilicity value (RM0) [4] | NDI (nuclear division index) (CHO-K1 cells; 1 µM) | DB (dicentric bridges) (CHO-K1 cells; 1 µM) | MN (micronuclei) (CHO-K1 cells; 1 µM) | NB (nuclear buds) (CHO-K1 cells; 1 µM) | NDI (nuclear division index) (CHO-K1 cells; 5 µM) | DB (dicentric bridges) (CHO-K1 cells; 5 µM) | MN (micronuclei) (CHO-K1 cells; 5 µM) | NB (nuclear buds) (CHO-K1 cells; 5 µM) | NDI (nuclear division index) (CHO-K1 cells; 10 µM) | DB (dicentric bridges) (CHO-K1 cells; 10 µM) | MN (micronuclei) (CHO-K1 cells; 10 µM) | also measured
CCOC(=O)CN1C(=O)/C(=C/c2ccc(OC)cc2)N(CC(=O)OCC)C1=O [JH10, diethyl 2,2′-((Z)-4-(4-methoxybenzylidene)-2,5-dioxoimidazolidine-1,3-diyl)diacetate] | ≥ 50 | no cytotoxicity | <<5 - min | - Hydrolysis | > 172 | ~5 | no significant increase | non-irritants | 2.46 | 1.31 | 3.5 | 9.0 ± 3.9 | 4.3 | 1.38 | 3.8 | 11.2 ± 3.6 | 5.2 | 1.47 | 3.5 | 9.5 ± 3.7 | parent compound detected ([2]; HLMs, 5 min time point): less than 0.5%; NB (nuclear buds) (CHO-K1 cells; 10 µM): 3.2; effect on MN, DB, NB and NDI (CHO-K1 cells): did not significantly alter any of the evaluated parameters
CCOC(=O)CN1C(=O)/C(=C/C=C/c2ccc(OC)cc2)N(CC(=O)OCC)C1=O [JH3, diethyl 2,2′-((Z)-4-((E)-3-(4-methoxyphenyl)allylidene)-2,5-dioxoimidazolidine-1,3-diyl)diacetate] | ≥ 50 | no cytotoxicity | 5 - min | - Hydrolysis | > 172 | ~5 | no significant increase | non-irritants | 3.22 | 1.45 | 3.8 | 10.1 ± 3.3 | 3.6 | 1.40 | 4.1 | 10.5 ± 3.9 | 3.5 | 1.32 | 3.6 | 12.0 ± 4.2 | parent compound remaining ([2]; HLMs, 15 min time point): Approximately 5%; NB (nuclear buds) (CHO-K1 cells; 10 µM): 5.4; effect on MN, DB, NB and NDI (CHO-K1 cells): did not significantly alter any of the evaluated parameters
